The source made the active and inactive calls. The rule behind the calls is not given here.
Key:
Rattus norvegicus [1] = experiment: Antifertility effect in Sprague-Dawley rat assessed as number of pregnant animals at 58 mg/kg, po administered postcoitally for 1 to 6 days; format: functional, organism-based; design: dose 58 mg/kg
Rattus norvegicus [2] = experiment: Toxicity in Sprague-Dawley rat at 40 mg/kg; format: organism-based; design: dose 40 mg/kg; conditions: in vivo
Syrian golden hamster = experiment: Toxicity in golden syrian hamster at 25 mg/kg; format: organism-based, Mesocricetus auratus; design: dose 25 mg/kg; conditions: in vivo
Rattus norvegicus [3] = experiment: Antifertility effect in Sprague-Dawley rat assessed as number of pregnant animals at 40 mg/kg, po administered postcoitally for 1 to 10 days; format: functional, organism-based; design: dose 40 mg/kg
Rattus norvegicus [4] = experiment: Antifertility effect in Sprague-Dawley rat assessed as number of pregnant animals at 10 mg/kg administered postcoitally for 1 to 10 days; format: functional, organism-based; design: dose 10 mg/kg
Mus musculus [5] = experiment: Antifertility effect in CD1 mouse assessed as number of pregnant animals at 100 mg/kg, po administered postcoitally for 6 days; format: functional, organism-based; design: dose 100 mg/kg
Rattus norvegicus [6] = experiment: Antifertility effect in Sprague-Dawley rat assessed as number of pregnant animals at 40 mg/kg, po administered postcoitally for 1 to 6 days; format: functional, organism-based; design: dose 40 mg/kg
Rattus norvegicus [7] = experiment: Antifertility effect in Sprague-Dawley rat assessed as number of pregnant animals at 2 mg/kg administered postcoitally for 1 to 10 days; format: functional, organism-based; design: dose 2 mg/kg
Mus musculus [8] = experiment: Antifertility effect in CD1 mouse assessed as number of pregnant animals at 50 mg/kg, po administered postcoitally for 6 days; format: functional, organism-based; design: dose 50 mg/kg

O=C1OC[C@H](Cc2ccc3c(c2)OCO3)/C1=C\c1ccc2c(c1)OCO2
Activity (Rattus norvegicus [1]): inactive

COc1cccc2c1cc([N+](=O)[O-])c1c(C(=O)O)cc3c(c12)OCO3 [ARISTOLOCHIC ACID]
Activity (Rattus norvegicus [2]): Active | Activity (Syrian golden hamster): Active | Activity (Rattus norvegicus [3]): Active | Activity (Rattus norvegicus [4]): inactive

C[C@@H]1CCC[C@]23C[C@@H](CC[C@@]12C)[C@@](C)(O)C3
Activity (Mus musculus [5]): inactive

COc1cccc2c1ccc1c(C(=O)O)cc3c(c12)OCO3
Activity (Rattus norvegicus [6]): inactive | Activity (Rattus norvegicus [7]): inactive

COC(=O)c1cc2c(c3c1ccc1c(OC)cccc13)OCO2
Activity (Mus musculus [8]): inactive

— ChEMBL document CHEMBL1151300, “Studies on Aristolochia III. Isolation and biological evaluation of constituents of Aristolochia indica roots for fertility-regulating activity” (J Nat Prod, 1984)
